This series in a line: water solubility determination at 20° C. in ion-free water. Conditions: for solubility at 10 min: water. The procedure: In a clear colorless vessel made of transparent material, such as, for example, glass or plastic, 1 ml of ion-free water or a fraction (amount A in ml) thereof is introduced at a temperature of 20° C.
If the amount of salt B added (in mg) completely dissolved, further amounts of the respective salt were slowly added. Each further addition was recorded and the solution behavior observed. As soon as the first turbidity due to undissolved salt was found by observation against a suitable background, stirring was continued for a further 10 minutes. If undissolved constituents subsequently remained, the sum C (in mg) of the amount of substance employed was determined. If a clear solution resulted again on stirring, further small amounts of the respective salt were added and the mixture was in each case stirred again for 10 minutes until a first turbidity remained on account of undissolved salts. The excess amount of undissolved substance was then brought into solution with stirring by addition of small amounts of water. After a clear solution had been obtained, the sum D (in ml) of the amount of water employed was determined. The solubility of the respective salt per 1 ml of water was then calculated according to the following formula: […]
If undissolved salt still remained then, the undissolved portion was brought into solution by addition of small amounts of water with stirring. After obtainment of a clear solution, the sum E (in ml) of the amounts of water employed was determined. The solubility of the respective salt per 1 ml of water was then calculated according to the following formula: […]

Where [1] appears, read: saccharinate salt, ion-free water, 20° C.
[2] abbreviates: Solubility of the active compound saccharinate in mg/ml of water, saccharinate salt, ion-free water, 20° C.
The mark [3] stands for this setting: Solubility of the active compound salt in mg/ml of water, conventional salt of the active compound (salt indicated in brackets), ion-free water, 20° C.

Where a name gives a salt, the structure may show the parent alone.

Turning to `CC[C@H](c1cccc(O)c1)[C@H](C)CN(C)C.O=C1NS(=O)(=O)c2ccccc21` [(+)-(1S,2S)-3-(3-dimethylamino-1-ethyl-2-methylpropyl)phenol saccharinate], under setting [1], the “Solubility of the active compound saccharinate in mg/ml of water” value is recorded as ≥ 55 mg/ml of water.
Take `CNC[C@H](O)c1cccc(O)c1` [Phenylephrine saccharinate, Phenylephrine]: the solubility at 10 min under setting [2] was at least 380 mg/mL.
The same measure, in the same setting: next, `COc1ccc2c3c1O[C@H]1[C@@H](O)C=C[C@H]4[C@@H](C2)N(C)CC[C@@]341` [Codeine saccharinate, Codeine]: at least 200 mg/mL.
`CC[C@@](O)(c1cccc(OC)c1)[C@@H](C)CN(C)C` [(−)-(2S,3S)-1-dimethylamino-3-(3-methoxyphenyl)-2-methylpentan-3-ol]: the solubility at 10 min reads like this: under setting [2], at least 90 mg/mL; under setting [3], at least 2000 mg/mL.
Under “Solubility of the active compound saccharinate in mg/ml of water”, `COc1cc(N)cn[n+]1-c1ccccc1` [Amezinium saccharinate, Amezinium] registered a solubility at 10 min of at least 8 mg/mL.
Regarding `CC[C@@](F)(c1cccc(O)c1)[C@@H](C)CN(C)C` [(−)-(1S,2S)-3-(3-dimethylamino-1-ethyl-1-fluoro-2-methyl-propyl)phenol], the solubility at 10 min reads like this: under setting [2], at least 130 mg/mL; under setting [3], at least 568 mg/mL.
In the same order, the values of `CC[C@@H](c1cccc(O)c1)[C@@H](C)CN(C)C` [(−)-(1R,2R)-3-(3-dimethylamino-1-ethyl-2-methylpropyl)phenol] are at least 31 mg/mL and at least 261 mg/mL.
In the same order, the values of `COc1cccc([C@@]2(O)C[C@H](O)CC[C@@H]2CN(C)C)c1` (racemic) [(1RS,3RS,6RS)-6-dimethylaminomethyl-1-(3-methoxy-phenyl)cyclohexane-1,3-diol] are at least 71 mg/mL and at least 500 mg/mL.
Regarding `COc1ccc2c3c1O[C@H]1[C@@H](O)C=C[C@H]4[C@@H](C2)N(C)CC[C@@]341` [Codeine phosphate hemihydrate, Codeine], under setting [3], the solubility at 10 min is at least 250 mg/mL.
Regarding “Benzalkonium [Benzalkonium hydrochloride]”, the “Solubility of the active compound salt in mg/ml of water” value (conventional salt of the active compound (salt indicated in brackets), ion-free water, 20° C.) is ≥ 500 mg/ml of water.
Turning to `COc1cccc([C@@]2(O)CC[C@H](OCc3ccc(F)cc3)C[C@@H]2CN(C)C)c1` [(+)-(1R,2R,4S)-2-dimethylaminomethyl-4-(4-fluorobenzyl-oxy)-1-(3-methoxy-phenyl)cyclohexanol], the solubility at 10 min (ion-free water, Solubility of the active compound saccharinate in mg/ml of water, saccharinate salt, 20° C.) is at least 10 mg/mL and the solubility at 10 min (ion-free water, Solubility of the active compound salt in mg/ml of water, conventional salt of the active compound (salt indicated in brackets), 20° C.) is at least 33 mg/mL.
For the compound `COc1cc(N)cn[n+]1-c1ccccc1` [Amezinium metilsulfate, Amezinium], the solubility at 10 min (Solubility of the active compound salt in mg/ml of water) was at least 25 mg/mL.
For `CC[C@H](c1cccc(O)c1)[C@H](C)CN(C)C.Cl` [(+)-(1S,2S)-3-(3-dimethylamino-1-ethyl-2-methylpropyl)phenol hydrochloride], under setting [3], the solubility at 10 min is at least 650 mg/mL.
As to `CNC[C@H](O)c1cccc(O)c1` [Phenylephrine hydrochloride, Phenylephrine], the solubility at 10 min under setting [3] was at least 1250 mg/mL.
For “Benzalkonium [Benzalkonium saccharinate]”, the “Solubility of the active compound saccharinate in mg/ml of water” value under setting [1] is reported as <2 mg/ml of water.

One may read the solubility as the concentration that dissolves in the medium under given conditions.
